Target: T1, DDX39B (Homo sapiens, UniProt Q13838)
T1 construct: His-DDX39B
Test: SPR (KD […]); also BLI with biotinylated His-DDX39B (KD […]) and CETSA in NSCLC cells
Type: binding

T1 sequence (Q13838 2-428): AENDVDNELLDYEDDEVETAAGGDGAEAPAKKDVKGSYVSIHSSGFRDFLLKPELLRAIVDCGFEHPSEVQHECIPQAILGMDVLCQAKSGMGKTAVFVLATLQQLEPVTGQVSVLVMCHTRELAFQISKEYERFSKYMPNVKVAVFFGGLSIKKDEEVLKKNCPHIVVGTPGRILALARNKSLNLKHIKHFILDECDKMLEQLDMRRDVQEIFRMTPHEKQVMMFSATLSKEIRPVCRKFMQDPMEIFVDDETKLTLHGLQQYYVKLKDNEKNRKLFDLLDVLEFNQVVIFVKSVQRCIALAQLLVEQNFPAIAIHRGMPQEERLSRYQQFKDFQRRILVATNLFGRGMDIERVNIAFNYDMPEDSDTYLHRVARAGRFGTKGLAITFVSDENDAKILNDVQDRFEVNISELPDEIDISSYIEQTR

Kd: 3.23 µM
SMILES: C[C@H]1[C@H](OC(=O)CCC(=O)O)O[C@@H]2O[C@@]3(C)CC[C@H]4[C@H](C)CC[C@@H]1[C@@]24OO3 [artesunate]
